We go through four molecules from patent US10039724B2, “7-hydroxy cannabidiol (7-OH-CBD) for use in the treatment of non-alcoholic fatty liver disease (NAFLD)” (GW Pharma Limited, priority 2014, dated 2018).

Each structure is given as a SMILES string.

Data set [1] deals with HHL5 cells. Put plainly: Intracellular triglyceride levels (AdipoRed) in oleic acid-treated HHL5 cells, in vitro model of fatty liver disease. It is filed as cell-based. The settings on record: for intracellular lipid (triglyceride) levels, AdipoRed staining: HHL5 cells co-incubated with 100 uM oleic acid and compound for 24 hr. The protocol:
(§1) HHL-5 cells were cultured in standard growth media (DMEM [Lonza] supplemented with 10% FBS [Lonza], NEAA [Gibco] and Pen.Strep [Gibco]). 3T3-L1 cells were cultured in growth media (GM; DMEM [Lonza] low NaHCO3 (1.5 g/l), supplemented with 10% FBS [Lonza] and pen./strep. [Gibco]).
(§2) HHL5 cells seeded in 96-well plates were grown to 90% confluence and then treated with 100 uM oleic acid (OA) or DMSO (−) for 24 hours in the absence or presence of cannabinoids at the indicated concentrations.
(§3) 3T3-L1 cells were plated in 100 mm plates and differentiated as above to obtain mature adipocytes, at which point they were re-plated into 96-well plates and then treated with the indicated concentrations of cannabinoids for 2 days. Cells were then washed with PBS and stained with AdipoRed (Lonza) and read with a Genios Pro Plate reader (Tecan) according to the manufacturer's instructions.
HHL5 hepatocytes that have been treated with oleic acid to induce intracellular lipid accumulation are a useful in vitro model for fatty liver disease.

Data set [2] deals with HHL5 cells. Put plainly: MTT cell viability assay in HHL5 cells. It is filed as cell-based. The settings on record: HHL5 cells treated in parallel. As for the experimental part:
as §2
(§4) MTT (3-[4,5-dimethyltiazol-2yl]-2,5 diphenyltetrazolium bromide) (5 mg/ml differentiation media) was added to cells treated as described above, and cells were incubated for additional 1 h at 37 C.
(§5) Cells were then washed in PBS and dried before the addition of 100 ul of isopropanol to dissolve the formazan precipitate. The OD of each well was measured with a Genios-Pro plate reader (Tecan) equipped with a 620-nm filter.
In general terms: Tetrazolium assays rely on reduction of a dye to a coloured formazan, in cell work by metabolically active cells.

Data set [3] concerns 3T3-L1-derived mature adipocytes. In words: MTT cell viability assay in 3T3-L1-derived mature adipocytes. It counts as cell-based. The note with it: mature 3T3-L1-derived adipocytes. As for the experimental part: as §3, §4, §5
For data set [4] the test system is unchanged. Put plainly: Intracellular triglyceride levels (AdipoRed) in 3T3-L1-derived mature adipocytes. The settings on record: for intracellular lipid stores, AdipoRed staining: mature 3T3-L1-derived adipocytes treated for 48 hours. It is filed as cell-based. As for the experimental part:
as §1
In order to induce adipogenesis cells were grown to 100% confluence and then switched to differentiation media (DMEM [Lonza] supplemented with a specific lot of 10% FBS [Lonza], 1 ug/ml Insulin (Sigma), 250 nM Dexamethasone (Sigma), 500 uM MIX (Sigma) and pen./strep. [Gibco]) for 2 days, followed by incubation in DMEM [Lonza] supplemented with a specific lot of 10% FBS [Lonza], 1 ug/ml Insulin (Sigma) and pen./strep. [Gibco] until day 7-10 at which point mature adipocytes are treated with cannabinoids at the indicated concentrations.
as §3

Data set [5] has as its system HHL5 cells. The settings on record: Wargent et al., 2013; cited from earlier work.

Consider `C=C(C)[C@@H]1CCC(CO)=C[C@H]1c1c(O)cc(CCCCC)cc1O` [7-OH-CBD, 7-hydroxy-cannabidiol], for which, in the data set with HHL5 cells [1], the “intracellular lipid (triglyceride) levels, AdipoRed staining” value is given as “effective at lowering TG levels”. For the same molecule, the “potency in lowering TG levels compared with parent compound CBD” value with HHL5 cells [1] (HHL5 cells, 100 uM oleic acid, 24 hr) is reported as “even more potent that its parent compound CBD”. For the same molecule, the “toxicity (cell viability, MTT assay)” value with HHL5 cells [2] is given as “neither 11-OH-THCV or 7-OH-CBD were found to be toxic”. In addition, in data set [3], the “effect on cellular viability (MTT assay)” value is listed as “not associated with any apparent effect on cellular viability”. Besides, the “efficacy in reducing Adipored staining compared with CBD” value in data set [4] (mature 3T3-L1-derived adipocytes) is recorded as “more efficacious than CBD at reducing Adipored staining”. Moreover, the “intracellular lipid stores, AdipoRed staining” value (“intracellular lipid stores” below) in data set [4] was “dose-dependently decreased intracellular lipid stores”.
On to `CCCc1cc(O)c2c(c1)OC(C)(C)[C@@H]1CCC(CO)=C[C@@H]21` [11-OH-THCV, 11-hydroxy-tetrahydrocannabivarin], for which, in the data set with HHL5 cells [1], the “intracellular lipid (triglyceride) levels, AdipoRed staining” value is given as “devoid of lipid lowering activity”. The “toxicity (cell viability, MTT assay)” value in the data set on HHL5 cells [2] was “neither 11-OH-THCV or 7-OH-CBD were found to be toxic”. Further, the “effect on cellular viability (MTT assay)” value in data set [3] was “not associated with any apparent effect on cellular viability”. In addition, in data set [4], the “intracellular lipid stores” value was “had no effect”.
Turning to `C=C(C)[C@@H]1CCC(C)=C[C@H]1c1c(O)cc(CCCCC)cc1O` [CBD, Cannabidiol], the “intracellular lipid (triglyceride) levels, AdipoRed staining” value in the data set on HHL5 cells [1] is given as “dose-dependently lowered intracellular lipid levels”. Moreover, the “toxicity (cell viability, MTT assay)” value in the data set on HHL5 cells [2] (up to 20 uM) was “no toxicity was found”. Besides, in data set [3], the “effect on cellular viability (MTT assay)” value is reported as “not associated with any apparent effect on cellular viability”. The “intracellular lipid stores” value in data set [4] is “dose-dependently decreased intracellular lipid stores”.
With `CCCc1cc(O)c2c(c1)OC(C)(C)[C@@H]1CCC(C)=C[C@@H]21` [THCV, Tetrahydrocannabivarin], the “intracellular lipid (triglyceride) levels, AdipoRed staining” value in the data set with HHL5 cells [1] is on record as “dose-dependently lowered intracellular lipid levels”. Also, in the data set on HHL5 cells [5], the “triglyceride (TG) levels in HHL-5 cells treated with oleic acid” value is recorded as “able to reduce triglyceride (TG) levels in a time dependent manner”. The “toxicity (cell viability, MTT assay)” value with HHL5 cells [2] (up to 20 uM) was “no toxicity was found”. The “effect on cellular viability (MTT assay)” value in data set [3] was “not associated with any apparent effect on cellular viability”. Also, in data set [4], the “intracellular lipid stores” value was “dose-dependently decreased intracellular lipid stores”.
